The subject of series [1] is oral findings due to GVHD. The procedure: Five other patients suffering from oral findings due to GVHD were treated with oral azathioprine solutions, using the method of the present invention. The patients were treated with 5 ml of a solution of AZA (5 mg/ml), three-four times daily. […] One patient (#5) was treated once with an oral rinse, and subsequently with a combination of an AZA rinse and AZA in a gel (5 mg/ml in a 3% methylcellulose base). The patients were not treated with any systemic immunosuppressant or steroid drug. The progress of each patient was reviewed at the times indicated.

The subject of series [2] is corneal graft rejections. The conditions noted are these: topical administration; cited from earlier work.
For series [3], the system named is aphthous stomatitis. The conditions noted are these: topical administration; cited from earlier work.
The conditions of series [4]: 50 mg/ml solution, 60 days at 25° C.; cited from earlier work.
For series [5] the following is noted: delayed-release oral capsule, improved ileocolonic delivery; cited from earlier work.
The test system of series [6] is parodontosis. The conditions noted are these: topical administration; cited from earlier work.
Series [7] relates to chronic oral GVHD. Kind of series: Case report: severe chronic oral GVHD refractory to systemic and topical therapies. Conditions: when systemic prednisone was increased; tongue ulceration not resolved.
Experimental: They had continuing difficulties with GVHD, including oral involvement.
Oral findings were consistent with pseudomembranous candidiasis, and an ulceration on the left cheek was consistent with minor trauma. […] Acute (grade II) GVHD (skin and liver) was treated with systemic corticosteroids.
Leukoplakia involving the lateral borders of the tongue, consistent with hairy-like leukoplakia, developed. […] Oral changes included findings consistent with GVHD and reactivation of HSV. HSV and candida were confirmed on culture. […] Multiple dilated salivary ducts were visualized on the soft palate. Ulcerations of 3-4 mm in diameter were present on the lateral borders, the dorsum, and the tip of the tongue. […] Biopsy of the ulcer on the cheek was consistent with HSV.
Extensive lichenoid striae with moderate erythema and ulceration involving the lateral tongue on the right and left and the right cheek was seen. A second oral biopsy of lip mucosa and minor salivary glands was completed, which was interpreted as grade II GVHD.
The AZA suspension was made by combining AZA powder with a cherry flavored methylcellulose (1%) suspending vehicle to a final concentration of 5 mg/ml. […]

Regarding `Cn1cnc([N+](=O)[O-])c1Sc1ncnc2nc[nH]c12` [AZA, azathioprine], the reduction in ulceration entry in series [1] (all but one of the GVHD patients of Table 1) is recorded as “at least 50%”. In addition, in series [1] (all five GVHD patients of Table 1), the “reduction in pain, all the patients” value is on record as “at least 50%”. In addition, the “estimated global improvement, all the patients” value in series [1] (all five GVHD patients of Table 1, compared to condition prior to treatment) is recorded as no less than 40%. Also, the “effect in the treatment of corneal graft rejections” value in series [2] is on record as “ineffective”. Moreover, the “effect in the treatment of aphthous stomatitis” value in series [3] is “ineffective”. The “retained share of the initial concentration” value in series [4] is reported as “at least 96%”. The systemic bioavailability entry in series [5] is given as “dramatically reduced systemic bioavailability”. The “effect in the treatment of parodontosis” value in series [6] is reported as “some beneficial effect”.
For the molecule `C[C@]12C=CC(=O)C=C1CC[C@@H]1[C@@H]2C(=O)C[C@@]2(C)[C@H]1CC[C@]2(O)C(=O)CO` [prednisone], the “oral symptoms and signs” value in series [7] is “improved”.
